The structures appear in SMILES notation. “Also recorded” adds a separate entry of the source.

Results on 3 compounds are retold here after patent US12378220B2, “WNT signaling pathway inhibitors for treatments of disease” (University of Maryland, Baltimore, priority 2016, dated 2025).

One data set deals with Wnt/β-catenin pathway. Briefly: dual-luciferase TCF/LEF reporter assay, LiCl-activated, HEK293 cells. Type of data set: cell-based. The conditions noted are these: Homo sapiens. (Reporter assays use an easily measured gene product as a stand-in for the process of interest.)
The subject of data set [1] is Madin-Darby Canine Kidney (MDCK) epithelial cell monolayer. Briefly: permeability across MDCK monolayer on transwell plates. Type of data set: in vitro ADME. The following applies: data not shown.
The next data set deals with A549 cells. The data set can be described thus: quantitative real-time RT-PCR of Wnt regulated genes. It counts as cell-based, human. As to the method: (§1) Quantitative Real-time RT-PCR. The total RNA extracted from the cells using TRIzol (Invitrogen) and 2 μg was reverse transcribed in a 20-μl volume system (QuantiTect Reverse Transcription Kit (Qiagen)) for quantitative PCR assays. SYBR green quantitative real-time PCR analyses were carried out using gene-specific primers (working concentration at 250 nM) in StepOnePlus real time PCR system (Applied Biosystems, AB), using the housekeeping gene GAPDH as an internal control. The PCR running procedure was as follows: 4 min denaturing at 95° C., followed by 40 cycles of 30 seconds of denaturing at 95° C. and then annealing and extension at 60° C. for 1 min.
A general note: Quantitative PCR measures a nucleic acid by following its amplification.

In data set [2] the test system is SW620 cells. Described as above. It counts as cell-based, human. The method, then:
as §1

In another data set the test system is WiDr cells. The description is as above. Type of data set: cell-based, human. The method, then:
as §1

The test system of data set [3] is SW480 cells. The data set can be described thus: Western blot of Wnt signaling proteins. The conditions noted are these: 48 h. Type of data set: cell-based, human. The method, then:
Using a Wester Blot, compounds YW2013 and YW2123 were tested in SW480 cells to determine their effect on the expression of Axin-2, β-catenin, and c-myc.
Western Blot: 1×10^6 Cells of SW480 cells were seeded into 6-well plates overnight. A concentration of 3, 10, 30 μM/L YW2013 and 3, 10 μM/L YW2123 was added after 24 h, medium with 1‰ DMSO was used as the control. Cells were exposed to treatment for 48 h. The dishes was washed twice using precold PBS and 100 μL of RIPA then added. After incubating plates on ice for 15 min, cells were scraped carefully and centrifuged for 10 minutes at 14,000 g at 4° C. immediately. The remaining supernatant and lysates were maintained at −70° C. A Bio-Rad protein assay kit (500-0002) was used to quantitate the cell lysates. The concentration was adjusted to 2 mg/ml. A ratio of 1:1 2× loading buffer was added and the samples were denatured by boiling. Protein samples were separated on 4-15% SDS-polyacrylamide gel (SDS-PAGE) and transferred onto the PVDF membranes (Millipore). Immune complexes were formed by incubation of the proteins with primary antibody β-catenin, c-myc, Axin-2, and GAPDH at 4° C. overnight. A second antibody with horseradish peroxidase (HRP, sigma) conjugated was used then. Blots were developed by enhanced chemiluminescence (Thermo).
A general note: Immunoblotting shows a protein as a band on a membrane.

The test system of data set [4] is SW480 cells. The data set can be described thus: colony formation assay. The following applies: 0-30 μM, 2 weeks. Type of data set: cell-based, human. As to the method:
(§2) Colony Formation Assay. HT-29 and SW620, SW480 cells were seeded into 6-well dishes with the medium containing 0, 1, 3, 10, 30 μM/L of YW2013 or YW2044, 500 cells/well. After 2 weeks, cells were fixed with 4% paraformaldehyde solution and stained with 0.5% crystal violet for 1 h at room temperature. The images of colonies were captured by microscopy.

The test system of data set [5] is SW620 cells. The data set can be described thus: colony formation assay. Type of data set: cell-based, human. As to the method: as §2
In data set [6] the test system is SW620 cells. Briefly: cell cycle analysis by flow cytometry. It counts as cell-based, human. The conditions noted are these: unsynchronized and synchronized, 24 h. The method, then:
SW620 cells were treated with YW2013 at various concentrations (0, 1, 10 μM) to determine the effect of YW2013 on the SW620 cell cycle in an unsynchronized assay (FIG. 27A) and an assay where cells were treated with FBS free medium for 24 hours up to synchronization before adding YW2013 (FIG. 27B).
Cell Cycle Analysis. SW620 cells were plated in 6-well plates for 24 h, and the medium was replaced with medium containing 0, 1, 10, μM/L of YW2013. After incubation for 24 h, the cells were harvested by trypsinization and then fixed with 70% 4° C. ethanol. Intracellular DNA was stained with 50 ng/ml propidium iodide in the dark for 30 min at room temperature, and the percentages of different phase of cells were determined by flow cytometry (BD FACScan; BD Biosciences).

Data set [7] deals with SW620 cells. Briefly: Annexin-V/AAD-7 double-staining apoptosis assay. The conditions noted are these: SW620 cells, 0, 3, 10, 30 μM, 48 h. Type of data set: cell-based, human. The method, then: Annexin-V/AAD-7 Double-Staining Assay. SW620 cells were treated with 0, 3, 10, 30 μM/L of YW2013 for 48 h. Then they were harvested and washed with PBS. Apoptotic cells were determined with an FITC Annexin V Apoptosis Detection Kit according to the manufacturer's protocol. Briefly, the cells were washed and subsequently incubated for 15 min at room temperature in the dark in 100 μL of 1× binding buffer containing 2 μL of Annexin V-FITC and 2 μL of AAD-7. After 30 min, apoptosis was analyzed by BD FACSCanto II Flow Cytometer.

Data set [8] deals with WiDr, SW620, HT29, HEK_LTV, and T84 cell lines. Briefly: cell proliferation and growth inhibition assay (CCK-8), cell line panel. Type of data set: cell-based, human. The conditions noted are these: 72 h, FIG. 12. As to the method:
Cell Proliferation and Growth Inhibition Assay. HT-29, HCT-116, WiDr, SW620, SW480, T84, A549, MCF-7, HepG2, Hela cells were cultured in respective growth medium. Cells of log phase were used. 3000-5000 cells/well were seeded in 96-well plates with a 100 μL volume. After 24 h, Compounds were dissolved to […] with DMSO, and a 3-fold serial dilution of the compounds from 5×10^−5 M to […] was performed. 2 μL of compound solution was added to 998 μL of growth medium, the mixture was vortexed sufficiently. 100 μL of the mixture was correspondingly added to the 96-well plate. 2 μL DMSO instead of compound solution was used as the 0% inhibitor control. After coincubation for 72 h, the old medium was removed and 100 μL of 10% CCK-8 in culture medium was added. 2 h later the plates were read in the microplate reader (Bio-Rad) at 450 nm. The data was calculated using Graph Pad Prism version 5.0. The IC50 were fitted using a nonlinear regression model with a sigmoidal dose response.

For a further data set, the system named is HT-29 cells. Briefly: colony formation assay. Type of data set: cell-based, human. The conditions noted are these: 0-30 μM, 2 weeks. The method, then:
as §2

The subject of a further data set is SW620 xenograft. Briefly: SW620 xenograft tumor growth. The conditions noted are these: i.p. 10 mg/kg or 50 mg/kg each day, 32 day study, vs vehicle. Type of data set: in vivo, nude mice. The method, then: FIG. 37A illustrates tumor growth measured during the study every other day. FIG. 37B illustrates tumor weight that was measured after mouse euthanization. FIG. 37C illustrates the change in mouse body weight during the study.
Six-week old nude mice were injected with 2×10^6 SW620 cells subcutaneously. 10 days after inoculation, mice received an i.p. injection of YW2065 at 10 mg/kg or 50 mg/kg or vehicle each day. The tumor growth (FIG. 37A) was measured every other day. The mice were euthanized at day 32, and tumors were weighed (FIG. 37B). Body weight change was monitored during the study (FIG. 37C).

Data set [9] deals with SW480 cells. The data set can be described thus: mitochondrial function and morphology. Type of data set: cell-based, human. The method, then: FIG. 38B illustrates ATP production estimated from the OCR measurement. […] DHE fluorescence intensity was measured by using ImageJ. ˜300 cells were counted in each treatment.
Mitochondrial function and morphology was determined in SW480 cells treated with YW2065.

On to `Cc1ccccc1-n1ncc(C(=O)Nc2ccc3ccccc3n2)c1C` [YW2013, 5-Methyl-N-(quinolin-2-yl)-1-(o-tolyl)-1H-pyrazole-4-carboxamide], for which, in the data set with Wnt/β-catenin pathway (HEK293, 24 h, At 1 μM concentration, remaining Wnt signaling activity, read-out: RLU % (Relative Light Units in reporter gene assays)), the activity at 1 µM was determined as 1.9%. In the data set on Wnt/β-catenin pathway (HEK293, Table 3, values in nM, read-out: IC50), the IC50 (as a rule, the concentration needed to halve the response being measured) came out at 9.6 nM. The “apical-to-basolateral and basolateral-to-apical flux” value in data set [1] is “significant apical-to-basolateral and basolateral-to-apical flux”. The “mRNA expression of Wnt regulated genes (Axin-2 and/or cyclin D1)” value in the data set on A549 cells, in the data set on SW620 cells [2] and in the data set with WiDr cells was “reduced mRNA expression” in each case. Besides, the “expression of Axin-2, β-catenin, and c-myc” value in the data set on SW480 cells [3] was “visibly reduced”. The colony formation result in the data set on SW480 cells [4] is “dose dependent reduction”; in the data set on SW620 cells [5] (0-30 μM, 2 weeks) it was “dose dependent reduction”. Also, in the data set on SW620 cells [5] (combined with Gefitinib), the “reduction in colony formation in combination” value is “markedly increased when combined with Gefitinib”. Further, in the data set on SW620 cells [6], the “effect on cell cycle” value is “cell cycle arrest in the G1 and S phases”. Besides, in the data set with SW620 cells [7], the apoptosis result is on record as “induced apoptosis in SW620 cells in a dose dependent manner”. Besides, the growth inhibitory activity result in data set [8] is “micromolar growth inhibitory activity”.
Consider `CCc1ccccc1-n1ncc(C(=O)Nc2ccc3ccccc3n2)c1C` [YW2044, 1-(2-Ethylphenyl)-5-methyl-N-(quinolin-2-yl)-1H-pyrazole-4-carboxamide], for which the “mRNA expression of Wnt regulated genes (Axin-2 and/or cyclin D1)” value with SW620 cells [2] is given as “reduce mRNA expression”. For the same compound, the Axin-2 expression result in the data set on SW480 cells [3] was “noticeable effect”. Besides, the colony formation entry in the data set with HT-29 cells is recorded as “dose dependent reduction”. The growth inhibitory activity result in [8] is reported as “micromolar growth inhibitory activity”.
For `Cc1c(C(=O)Nc2ccc3ccccc3n2)cnn1-c1ccccc1Br` [YW2065, 1-(2-Bromophenyl)-5-methyl-N-(quinolin-2-yl)-1H-pyrazole-4-carboxamide], the tumor growth result with SW620 xenograft is listed as “markedly inhibited tumor growth; also recorded: inhibited SW620 xenograft growth”. In the data set on SW480 cells [9], the “ATP production (estimated from OCR)” value is “inhibited ATP production as a function of dosage”, the “ROS generation (DHE staining)” value is listed as “increased ROS generation” and the “oxygen consumption rate (OCR)” value is recorded as “reduced oxygen consumption rate”. In addition, the mitochondrial morphology entry in the data set on SW480 cells [9] (10 μM, 4 hours) was “caused short and punctuated mitochondria”.
